Test results: ChEMBL document CHEMBL1909046, “DrugMatrix in vitro pharmacology data”

Assays:
[1] = DRUGMATRIX: Sodium/nucleoside co-transporter radioligand binding (ligand: nitrobenzylthioinosine); type: cell membranes, Cavia porcellus, Dunkin-Hartley, Cerebral cortex, Membrane; settings: Not Active = under 50% inhibition at 10 µM
[2] = target: Aldo-keto reductase family 1 member B1 (Rattus norvegicus, UniProt P07943); assay: biochemical; type: tissue-based, Lens of camera-type eye;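 note: inhibition of aldose reductase enzyme activity, measured with DL-glyceraldehyde as the substrate; in other assays of this panel Not Active means under 50% inhibition at 10 µM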
Vasopressin V1a receptor = Vasopressin V1a receptor (Homo sapiens, UniProt P37288); type: cell membranes, Membrane; settings: hek293; note: in other assays of this panel Not Active means under 50% inhibition at 10 µM
Chain of Vasopressin V1a receptor (P37288 whole entry): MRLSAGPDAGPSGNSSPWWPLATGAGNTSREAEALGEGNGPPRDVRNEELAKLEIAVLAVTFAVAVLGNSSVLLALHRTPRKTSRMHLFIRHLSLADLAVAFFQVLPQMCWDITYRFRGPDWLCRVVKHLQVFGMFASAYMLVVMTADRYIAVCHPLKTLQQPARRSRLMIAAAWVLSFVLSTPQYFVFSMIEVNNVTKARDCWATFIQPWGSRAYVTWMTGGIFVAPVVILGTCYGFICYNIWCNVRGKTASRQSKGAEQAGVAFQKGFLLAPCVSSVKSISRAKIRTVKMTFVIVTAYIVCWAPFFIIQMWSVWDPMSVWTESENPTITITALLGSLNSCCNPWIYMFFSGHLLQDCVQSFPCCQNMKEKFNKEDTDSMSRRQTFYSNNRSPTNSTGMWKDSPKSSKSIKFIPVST

[3] = DRUGMATRIX: GABAA, Chloride Channel, TBOB radioligand binding (ligand: [3H] TBOB); type: cell membranes, Rattus norvegicus, Wistar, Cerebral cortex, Membrane; settings: Not Active = under 50% inhibition at 10 µM
[4] = target: T1, Muscarinic acetylcholine receptor M5 (Homo sapiens, UniProt P08912); type: cell membranes, CHO-K1, Membrane; settings: cho-k1; note: in other assays of this panel Not Active means under 50% inhibition at 10 µM
T1 sequence (P08912 whole entry): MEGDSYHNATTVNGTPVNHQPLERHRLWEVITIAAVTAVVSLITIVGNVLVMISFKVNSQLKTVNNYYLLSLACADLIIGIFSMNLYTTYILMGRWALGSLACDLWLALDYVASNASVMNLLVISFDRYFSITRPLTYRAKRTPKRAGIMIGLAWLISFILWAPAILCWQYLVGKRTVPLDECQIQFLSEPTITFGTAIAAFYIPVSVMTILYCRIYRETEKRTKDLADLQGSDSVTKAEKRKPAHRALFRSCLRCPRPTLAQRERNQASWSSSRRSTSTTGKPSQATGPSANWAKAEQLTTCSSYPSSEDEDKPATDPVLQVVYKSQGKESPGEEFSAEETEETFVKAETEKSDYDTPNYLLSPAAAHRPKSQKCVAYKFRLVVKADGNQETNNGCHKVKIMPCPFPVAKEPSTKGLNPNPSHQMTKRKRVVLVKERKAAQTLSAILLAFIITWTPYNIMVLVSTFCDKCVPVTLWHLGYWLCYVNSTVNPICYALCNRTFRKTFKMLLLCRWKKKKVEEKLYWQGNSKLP

Nitric oxide synthase 1 = Nitric oxide synthase 1 (Rattus norvegicus, UniProt P29476); type: tissue-based, Cerebellum; note: in other assays of this panel Not Active means under 50% inhibition at 10 µM
Chain of Nitric oxide synthase 1 (P29476 whole entry): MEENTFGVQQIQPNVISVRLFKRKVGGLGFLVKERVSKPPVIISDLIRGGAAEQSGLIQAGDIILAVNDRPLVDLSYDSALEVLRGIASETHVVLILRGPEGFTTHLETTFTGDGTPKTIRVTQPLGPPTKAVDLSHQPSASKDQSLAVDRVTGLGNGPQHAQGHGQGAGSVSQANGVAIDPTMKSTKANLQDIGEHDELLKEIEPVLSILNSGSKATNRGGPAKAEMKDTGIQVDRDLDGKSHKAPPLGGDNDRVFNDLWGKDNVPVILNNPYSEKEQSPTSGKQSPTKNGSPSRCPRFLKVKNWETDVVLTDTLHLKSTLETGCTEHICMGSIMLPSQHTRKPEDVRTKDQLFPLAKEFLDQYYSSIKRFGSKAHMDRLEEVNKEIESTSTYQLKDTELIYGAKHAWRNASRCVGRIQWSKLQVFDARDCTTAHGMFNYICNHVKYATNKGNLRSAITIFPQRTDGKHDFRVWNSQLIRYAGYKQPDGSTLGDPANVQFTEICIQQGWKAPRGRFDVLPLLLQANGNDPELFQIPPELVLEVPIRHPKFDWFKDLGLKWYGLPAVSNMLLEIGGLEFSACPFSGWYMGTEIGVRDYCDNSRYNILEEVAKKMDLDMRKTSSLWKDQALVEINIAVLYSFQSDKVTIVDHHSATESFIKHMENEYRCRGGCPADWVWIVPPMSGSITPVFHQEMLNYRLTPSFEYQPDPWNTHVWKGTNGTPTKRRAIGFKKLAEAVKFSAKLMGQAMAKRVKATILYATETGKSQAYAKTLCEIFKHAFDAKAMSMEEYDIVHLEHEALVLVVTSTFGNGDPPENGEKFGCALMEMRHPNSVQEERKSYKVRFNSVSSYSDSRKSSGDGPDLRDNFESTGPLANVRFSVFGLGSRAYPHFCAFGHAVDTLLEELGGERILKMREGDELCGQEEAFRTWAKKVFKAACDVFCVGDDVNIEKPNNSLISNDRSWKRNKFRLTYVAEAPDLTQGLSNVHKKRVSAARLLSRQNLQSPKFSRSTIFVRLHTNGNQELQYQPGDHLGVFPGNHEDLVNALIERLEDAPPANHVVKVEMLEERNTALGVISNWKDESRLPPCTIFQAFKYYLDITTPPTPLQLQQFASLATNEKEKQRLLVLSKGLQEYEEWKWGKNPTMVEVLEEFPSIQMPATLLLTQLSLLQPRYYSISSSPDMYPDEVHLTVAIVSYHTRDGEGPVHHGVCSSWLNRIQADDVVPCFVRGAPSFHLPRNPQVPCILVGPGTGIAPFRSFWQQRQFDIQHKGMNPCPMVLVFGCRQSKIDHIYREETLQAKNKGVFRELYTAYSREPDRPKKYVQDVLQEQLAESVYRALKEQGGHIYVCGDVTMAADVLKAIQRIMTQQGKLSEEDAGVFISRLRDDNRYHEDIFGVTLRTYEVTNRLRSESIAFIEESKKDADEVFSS

CO[C@@H]1[C@@H](OC)[C@H](C)[C@@](O)(CC(=O)O)O[C@H]1[C@H](C)[C@H]1O[C@@]2(CC[C@@](C)([C@H]3CC[C@@](C)([C@@H]4O[C@@H]([C@H]5O[C@](C)(O)[C@H](C)C[C@@H]5C)C[C@@H]4O[C@@H]4C[C@H](OC)[C@@H](OC)[C@H](C)O4)O3)O2)C[C@H](O)[C@H]1C.N [MADURAMICIN]
Not Active: IC50 [1] | Ki [1] | IC50 [2] | IC50 (Vasopressin V1a receptor) | IC50 [3] | Ki [3] | IC50 [4] | IC50 (Nitric oxide synthase 1)

CN1C(=O)OC(C)(C)C1=O [TRIMETHADIONE]
Not Active: IC50 [1] | Ki [1] | IC50 [2] | IC50 (Vasopressin V1a receptor) | IC50 [3] | Ki [3] | IC50 [4] | IC50 (Nitric oxide synthase 1)

CC1(C)[C@H](C(=O)O)N2C(=O)C[C@H]2S1(=O)=O [SULBACTAM]
Not Active: IC50 [1] | Ki [1] | IC50 [2] | IC50 (Vasopressin V1a receptor) | IC50 [3] | Ki [3] | IC50 [4] | IC50 (Nitric oxide synthase 1)
